Assay results: patent US20220184072A1 (priority 2019, published 2022)

How the values were obtained:
Type in all cases: in vivo
[1] = test system: TH (tyrosine hydroxylase); test: CNS phosphoprotein profile, TH; conditions: mice nucleus accumbens; Example 1 3 mg/kg at 30 or 60 minutes; haloperidol 2 mg/kg
Experimental: (§1) A comprehensive molecular phosphorylation study is also carried out to examine the central nervous system (CNS) profile of the compound of Example 1. The extent of protein phosphorylation for selected key central nervous system proteins is measured in mice nucleus accumbens.
(§2) Mice were killed 30 minutes to 2 hours post-injection by focused microwave cranial irradiation, which preserves brain phosphoprotein as it exists at the time of death. Nucleus accumbens was then dissected from each mouse brain, sliced and frozen in liquid nitrogen. Samples were further prepared for phosphoprotein analysis via SDS-PAGE electrophoresis followed by phosphoprotein-specific immunoblotting, as described in Zhu H, et al., Brain Res. 2010 Jun. 25; 1342:11-23. Phosphorylation at each site was quantified, normalized to total levels of the protein (non-phosphorylated), and expressed as percent of the level of phosphorylation in vehicle-treated control mice.

NR2B = test: CNS phosphoprotein profile, NR2B; conditions: mice nucleus accumbens, 3 mg/kg, 30-60 minutes
Experimental: as §1, §2

STZ-diabetic rats [2] = test: STZ-rat model, tactile stimuli (von Frey filaments)
Experimental: (§3) The compound of Example 1 is also tested in an STZ-rat model of neuropathic pain. Briefly, adult female rats are made diabetic by treatment with streptozotocin (STZ), an alkylating neoplastic agent which is particularly toxic to the insulin-producing beta cells of the pancreas. The resulting type-I diabetes in the rats leads to the development of diabetic neuropathy over a 3 to 6-week period. […] Once diabetic neuropathy has been induced, the rats may be treated to determine the analgesic effect of compounds.
Paw tactile response threshold is a clinical assessment of allodynia to light touch. It can be measured using manual von Frey filaments (as described in Otto et al., Pain, 101:187-92 (2003). A series of von Frey filaments with logarithmically increasing stiffness are used, and the rats' response to each filament is observed. The results are used to calculate a 50%-withdrawal threshold (an amount of stiffness in the filament resulting in a 50% probability of withdrawal of the rat's paw).
This test is performed using the von Frey filaments as described above.

STZ-diabetic rats [3] = test: STZ-rat model, mechanical (pressure) stimuli
Experimental: as §3
Paw mechanical response threshold is also a clinical assessment of allodynia to light touch, but it relies on the observed response to pressure (force) applied to a paw.
This test is performed by measuring the static applied force threshold (pressure) for paw removal, as described above.

ZFD rats [4] = test: ZFD rat model, electronic von Frey (paw pressure); set-up: unit not given here
Experimental: Forty (40) adult, male […] rats weighing 225-275 g at the start of the study are used in these experiments, including ten (10) lean, controls and thirty (30) ZFD rats. Animals are maintained in the vivarium at a controlled room temperature between 65 to 85° F. and a relative humidity between 30-70% under illumination by fluorescent lighting on a daily 12-hour light/dark cycle. All animals are maintained 2 per cage with free access to dry food and water.
Paw pressure response threshold: This test applies greater force to the plantar hind paw than manual von Frey filaments and may be equated to pressure-induced pain such as that described by diabetic subjects upon standing and walking. Hyperalgesia to this measure develops over several weeks in ZFD rats such that this test can give an assessment of hyperalgesia and drug efficacy that differs from the allodynia measured by manual von Frey filaments. The method is described in detail by Lee-Kubil, Mixcoati-Zecuatl, Jolivalt, & Calcutt, Animal Models of Diabetes-Induced Neuropathic Pain, CURRENT TOPICS IN BEHAVIORAL NEUROSCIENCES 20: 147-170 (2014).
Dosing procedures. Zucker Fatty Diabetic rats are found to develop hyperglycemia over 6-8 weeks. […] Upon confirmation of the presence of painful neuropathy, rats are tested for three measures of hyperalgesia: cold allodynia threshold, tactile hyperalgesia (von Frey filaments), and pressure responses measured by a mechanical von Frey device. All rats are tested in all three assays and all rats receive each of four (4) pre-treatments administered subcutaneously (s.c.) in a vehicle of 10% Trappsol in water. All rats receive treatments in the same order, as follows: vehicle, 1 mg/kg Compound of Ex. 1, 3 mg/kg Compound of Ex. 1, and 10 mg/kg Compound of Ex. 1. Rats receive pre-treatments 30 minutes prior to the start of testing. Hyperalgesia/allodynia measures are recorded from each rat at baseline (0 time), then 1, 2, 3, 4, and 6 h after treatment.
After the completion of testing of all rats at all dose/conditions for each assay (cold, tactile, and pressure responses) rats are out-fitted with cannulas for intrathecal (i.t.) application of vehicle or Compound of Ex. 1 (1, 3 or 10 μg) directly to spinal cord. All rats are then re-tested in each of the tree assays at each of the 4 pretreatment conditions/doses.

ZFD rats [5] = test: ZFD rat model, paw formalin test; conditions: s.c. or i.t., at the end of the study
From the text: Paw formalin test: This test enables discrimination of pain driven by primary afferent input (phase 1) versus spinal sensitization and amplifications of primary afferent input (phase 2). There is, however, no clinical equivalent to this test. The method used here is described in detail in Calcutt (2004), supra.

## O=C1CN2c3c(cccc3[C@@H]3CN(CCCOc4ccc(F)cc4)CC[C@@H]32)N1 [Example 1, (6bR,10aS)-8-(3-(4-fluorophenoxy)propyl)-6b,7,8,9,10,10a-hexahydro-1H-pyrido[3′,4′:4,5]pyrrolo[1,2,3-de]quinoxalin-2(3H)-one]
[1]
  increase in TH phosphorylation at Ser40: no significant effect
NR2B
  NR2B phosphorylation at Tyr1472: no significant effect
STZ-diabetic rats [2]; STZ-diabetic rats, 1 mg/kg s.c., 4 hours (peak)
  50% withdrawal threshold: about 4 g
STZ-diabetic rats [2]; STZ-diabetic rats, 1 mg/kg s.c., 6 hours
  50% withdrawal threshold: about 3 g
STZ-diabetic rats [2]; STZ-diabetic rats, 3 mg/kg s.c., 1 hours
  50% withdrawal threshold: about 6 g
STZ-diabetic rats [2]; STZ-diabetic rats, 3 mg/kg s.c., 2 hours (peak)
  50% withdrawal threshold: ~8 g
STZ-diabetic rats [2]; STZ-diabetic rats, 3 mg/kg s.c., 4 hours
  50% withdrawal threshold: about 3 g
STZ-diabetic rats [2]; STZ-diabetic rats, 10 mg/kg s.c., 1 hour
  50% withdrawal threshold: about 9 g
STZ-diabetic rats [2]; STZ-diabetic rats, 10 mg/kg s.c., 2 hours (peak)
  50% withdrawal threshold: about 10 g
STZ-diabetic rats [2]; STZ-diabetic rats, 10 mg/kg s.c., 6 hours
  50% withdrawal threshold: about 3 g
STZ-diabetic rats [2]; rat, in vivo, sc, 10 mg/kg
  50% withdrawal threshold: about 7 g
STZ-diabetic rats [3]; 1 mg/kg s.c., 4 hours (peak)
  withdrawal force threshold: about 40 g
STZ-diabetic rats [3]; 1 mg/kg s.c., 6 hours
  withdrawal force threshold: about 35 g
STZ-diabetic rats [3]; 3 mg/kg s.c., 2 hours (peak)
  withdrawal force threshold: about 45 g
STZ-diabetic rats [3]; 3 mg/kg s.c., 6 hours
  withdrawal force threshold: about 25 g
STZ-diabetic rats [3]; 10 mg/kg s.c., 1 hour
  withdrawal force threshold: about 60 g
STZ-diabetic rats [3]; 10 mg/kg s.c., 2 hours to 4 hours
  withdrawal force threshold: 45 to 50 g
STZ-diabetic rats [3]; 10 mg/kg s.c., 6 hours
  withdrawal force threshold: about 35 g
ZFD rats [4]; Control rats, 10 μg i.t., 0 hr
  Electronic von Frey (paw pressure response): 63.68
ZFD rats [4]; Control rats, 10 μg i.t., 1 hr
  Electronic von Frey (paw pressure response): 60.91
ZFD rats [4]; Control rats, 10 μg i.t., 2 hr
  Electronic von Frey (paw pressure response): 62.10
ZFD rats [4]; Control rats, 10 μg i.t., 4 hr
  Electronic von Frey (paw pressure response): 59.56
ZFD rats [4]; Control rats, 10 mg/kg s.c., 0 hr
  Electronic von Frey (paw pressure response): 58.64
ZFD rats [4]; Control rats, 10 mg/kg s.c., 1 hr
  Electronic von Frey (paw pressure response): 55.73
ZFD rats [4]; Control rats, 10 mg/kg s.c., 2 hr
  Electronic von Frey (paw pressure response): 60.74
ZFD rats [4]; Control rats, 10 mg/kg s.c., 4 hr
  Electronic von Frey (paw pressure response): 62.89
ZFD rats [4]; ZFD rats, 1 μg i.t., 0 hr
  Electronic von Frey (paw pressure response): 24.76
ZFD rats [4]; ZFD rats, 1 μg i.t., 1 hr
  Electronic von Frey (paw pressure response): 34.77
ZFD rats [4]; ZFD rats, 1 μg i.t., 2 hr
  Electronic von Frey (paw pressure response): 30.09
ZFD rats [4]; ZFD rats, 1 μg i.t., 4 hr
  Electronic von Frey (paw pressure response): 28.19
ZFD rats [4]; ZFD rats, 3 μg i.t., 0 hr
  Electronic von Frey (paw pressure response): 33.23
ZFD rats [4]; ZFD rats, 3 μg i.t., 1 hr
  Electronic von Frey (paw pressure response): 53.94
ZFD rats [4]; ZFD rats, 3 μg i.t., 2 hr
  Electronic von Frey (paw pressure response): 50.17
ZFD rats [4]; ZFD rats, 3 μg i.t., 4 hr
  Electronic von Frey (paw pressure response): 39.95
ZFD rats [4]; ZFD rats, 10 μg i.t., 0 hr
  Electronic von Frey (paw pressure response): 24.68
ZFD rats [4]; ZFD rats, 10 μg i.t., 1 hr
  Electronic von Frey (paw pressure response): 46.37
ZFD rats [4]; ZFD rats, 10 μg i.t., 2 hr
  Electronic von Frey (paw pressure response): 45.01
ZFD rats [4]; ZFD rats, 10 μg i.t., 4 hr
  Electronic von Frey (paw pressure response): 32.33
ZFD rats [4]; ZFD rats, 1 mg/kg s.c., 0 hr
  Electronic von Frey (paw pressure response): 28.36
ZFD rats [4]; ZFD rats, 1 mg/kg s.c., 1 hr
  Electronic von Frey (paw pressure response): 32.99
ZFD rats [4]; ZFD rats, 1 mg/kg s.c., 2 hr
  Electronic von Frey (paw pressure response): 27.35
ZFD rats [4]; ZFD rats, 1 mg/kg s.c., 4 hr
  Electronic von Frey (paw pressure response): 24.67
ZFD rats [4]; ZFD rats, 3 mg/kg s.c., 0 hr
  Electronic von Frey (paw pressure response): 33.72
ZFD rats [4]; ZFD rats, 3 mg/kg s.c., 1 hr
  Electronic von Frey (paw pressure response): 54.21
ZFD rats [4]; ZFD rats, 3 mg/kg s.c., 2 hr
  Electronic von Frey (paw pressure response): 58.41
ZFD rats [4]; ZFD rats, 3 mg/kg s.c., 4 hr
  Electronic von Frey (paw pressure response): 30.01
ZFD rats [4]; ZFD rats, 10 mg/kg s.c., 0 hr
  Electronic von Frey (paw pressure response): 22.69
ZFD rats [4]; ZFD rats, 10 mg/kg s.c., 1 hr
  Electronic von Frey (paw pressure response): 56.02
ZFD rats [4]; ZFD rats, 10 mg/kg s.c., 2 hr
  Electronic von Frey (paw pressure response): 58.15
ZFD rats [4]; ZFD rats, 10 mg/kg s.c., 4 hr
  Electronic von Frey (paw pressure response): 39.32
ZFD rats [5]
  pain responses in early or late phase of the formalin test: no effect
